The results in this text go back to US10736822B2, “Root canal treatment material and root canal treatment kit” (FUJIFILM Corporation, priority 2016, dated 2020).

The series is described as follows: Evaluation of curability under moist environment (distilled water added, Vicat needle). The conditions noted are these: conclusion in words from Table 1. The class given is physicochemical. As for the experimental part:
The curability of each of the root canal treatment materials according to the examples and the comparative examples was evaluated through the following method. First, a cylindrical mold having an inner diameter of 5 mm and a height of 1 mm was filled with each of the root canal treatment materials which was then subjected to light irradiation with a light irradiator (“G-Light Prima II Plus” manufactured by GC) for 40 seconds to produce a test piece. […] A needle mark was visually checked and evaluated according to the following criteria.
The curability of each of the root canal treatment materials according to the examples and the comparative examples was evaluated in a moist environment through the following method. First, 15 μL of distilled water was added to 0.15 g of each of the root canal treatment materials which was then subjected to light irradiation with the light irradiator (“G-Light Prima II Plus” manufactured by GC) for 20 seconds to produce a test piece. The curability of each of the obtained test pieces was evaluated in the same manner as in <Evaluation of Curability> described above.

Regarding `C=CC(=O)NCCCOCC(COCCCNC(=O)C=C)(COCCCNC(=O)C=C)NC(=O)C=C` [compound (I)], the “curability in a moist environment” value is “particularly excellent curability in a moist environment”.
